# From patent publication US8981111B2 (priority 2008, dated 2015)
# Experiment: log P (HPLC/MS data of the preparation examples)
# Conditions: LC-MS, method [b]: pH 2.7 with 0.1% formic acid in water and acetonitrile, linear gradient 10% to 95% acetonitrile
row,Structure (SMILES),log p
1,Cn1ccnc1C(=NOCc1nccc(NC(=O)C(C)(C)C)n1)c1ccccc1 [Example 12],1.77^[b]
2,CCCCCCC(=O)Nc1ccnc(CON=C(c2ccccc2)c2nccn2C)n1 [Example 14],2.39^[b]
3,CC(C)CC(=O)Nc1ccnc(CON=C(c2ccccc2)c2nccn2C)n1 [Example 15],1.76^[b]
4,CCCCCC(=O)Nc1ccnc(CON=C(c2ccccc2)c2nccn2C)n1 [Example 16],2.1^[b]
5,Cc1ccc(C(=NOCc2cccc(NC(=O)C3CC3)n2)c2ncnn2C)cc1 [Example 17],2.73^[b]
6,CCCCCC(=O)Nc1cccc(CON=C(c2ccc(C)cc2)c2ncnn2C)n1 [Example 18],3.71^[b]
7,Cc1ccc(C(=NOCc2cccc(NC(=O)C(C)(C)C)n2)c2ncnn2C)cc1 [Example 19],3.31^[b]
8,Cc1cccc(C(=NOCc2cccc(NC(=O)C3CC3)n2)c2ncnn2C)c1 [Example 20],2.73^[b]
9,CCCCCC(=O)Nc1cccc(CON=C(c2cccc(C)c2)c2ncnn2C)n1 [Example 21],3.71^[b]
10,Cc1cccc(C(=NOCc2cccc(NC(=O)C(C)(C)C)n2)c2ncnn2C)c1 [Example 22],3.31^[b]
11,Cc1ccccc1C(=NOCc1cccc(NC(=O)C2CC2)n1)c1ncnn1C [Example 23],2.48^[b]
12,CCCCCC(=O)Nc1cccc(CON=C(c2ccccc2C)c2ncnn2C)n1 [Example 24],3.46^[b]
13,Cc1ccccc1C(=NOCc1cccc(NC(=O)C(C)(C)C)n1)c1ncnn1C [Example 25],3.06^[b]
14,Cn1ncnc1C(=NOCc1cccc(NC(=O)C(C)(C)C)n1)c1ccccc1 [Example 26],2.98^[b]
15,Cn1ncnc1C(=NOCc1cccc(NC(=O)C2CC2)n1)c1ccccc1 [Example 27],2.41^[b]
16,Cn1ncnc1C(=NOCc1cccc(NC(=O)Cc2ccccc2)n1)c1ccccc1 [Example 29],3.06^[b]
17,Cc1ccccc1C(=NOCc1cccc(NC(=O)Cc2ccccc2)n1)c1ncnn1C [Example 30],3.11^[b]
18,Cc1cccc(C(=NOCc2cccc(NC(=O)Cc3ccccc3)n2)c2ncnn2C)c1 [Example 31],3.35^[b]
19,Cn1ccnc1C(=NOCc1cccc(NC(=O)Cc2ccccc2)n1)c1ccccc1 [Example 32],2^[b]
20,CCCCCC(=O)Nc1cccc(CON=C(c2ccccc2)c2nccn2C)n1 [Example 33],2.23^[b]
21,CCCCCOC(=O)Nc1cccc(CON=C(c2ccccc2)c2ncnn2C)n1 [Example 35],3.96^[b]
22,CC(C)CC(=O)Nc1cccc(CON=C(c2ccccc2)c2nccn2C)n1 [Example 36],1.89^[b]
23,CCCCCOC(=O)Nc1cccc(CON=C(c2ccccc2)c2nccn2C)n1 [Example 37],2.6^[b]
24,CCCCCC(=O)Nc1ccnc(CON=C(c2ccc(C)cc2)c2ncnn2C)n1 [Example 38],3.42^[b]
25,Cc1ccc(C(=NOCc2nccc(NC(=O)C(C)(C)C)n2)c2ncnn2C)cc1 [Example 39],3.02^[b]
26,Cc1ccc(C(=NOCc2nccc(NC(=O)C3CC3)n2)c2ncnn2C)cc1 [Example 40],2.46^[b]
27,CCCCCOC(=O)Nc1ccnc(CON=C(c2ccc(C)cc2)c2ncnn2C)n1 [Example 41],3.76^[b]

row,Structure (SMILES),log p
1,COC(=O)CCCC(=O)Nc1cccc(CON=C(c2ccc(C)cc2)c2ncnn2C)n1 [Example 42],2.68^[b]
2,COC(=O)CCCC(=O)Nc1cccc(CON=C(c2ccccc2)c2ncnn2C)n1 [Example 43],2.39^[b]
3,CCCCCOC(=O)Nc1cccc(CON=C(c2ccc(C)cc2)c2ncnn2C)n1 [Example 44],4.31^[b]
4,CCCCCOC(=O)Nc1cccc(CON=C(c2ccccc2C)c2ncnn2C)n1 [Example 45],4.06^[b]
5,Cn1ncnc1C(=NOCc1ncc(C(F)(F)F)cc1Cl)c1ccccc1 [Example 47],3.44^[b]
6,CCCCCC(=O)Nc1cccc(CON=C(c2cccc(C)c2)c2ncnn2C)n1 [Example 48],3.55^[b]
7,Cn1ncnc1C(=NOCc1ccccn1)c1ccccc1 [Example 50],1.51^[b]
8,Cn1ncnc1C(=NOCc1ccc2ccccc2n1)c1ccccc1 [Example 51],2.51^[b]
9,CCOC(=O)Nc1ccnc(CON=C(c2ccccc2)c2nccn2C)n1 [Example 52],1.47^[b]
10,COCC(=O)Nc1ccnc(CON=C(c2ccccc2)c2nccn2C)n1 [Example 53],1.2^[b]
11,Cn1ccnc1C(=NOCc1nccc(NC(=O)COCc2ccccc2)n1)c1ccccc1 [Example 54],2.04^[b]
12,CCCCCOC(=O)Nc1ccnc(CON=C(c2ccccc2)c2nccn2C)n1 [Example 55],2.28^[b]
13,COCCOCC(=O)Nc1ccnc(CON=C(c2ccccc2)c2nccn2C)n1 [Example 56],1.34^[b]
14,C=CCOC(=O)Nc1ccnc(CON=C(c2ccccc2)c2nccn2C)n1 [Example 57],1.62^[b]
15,CCCC(=O)Nc1ccnc(CON=C(c2ccccc2)c2nccn2C)n1 [Example 58],1.68^[b]
16,CCCCC(=O)Nc1ccnc(CON=C(c2ccccc2)c2nccn2C)n1 [Example 59],1.95^[b]
17,Cn1nncc1C(=NOCc1cccc(N)n1)c1ccccc1 [Example 60],1.11^[b]
18,CC(=O)Nc1ccnc(CON=C(c2ccccc2)c2nccn2C)n1 [Example 62],1.13^[b]
19,CCC(=O)Nc1ccnc(CON=C(c2ccccc2)c2nccn2C)n1 [Example 63],1.38^[b]
20,Cn1ccnc1C(=NOCc1nccc(NC(=O)CCc2ccccc2)n1)c1ccccc1 [Example 64],2.21^[b]
21,CCCCCC(=O)Nc1cccc(CON=C(c2ccccc2)c2cnnn2C)n1 [Example 65],3.52^[b]
22,Cn1nncc1C(=NOCc1cccc(NC(=O)C(C)(C)C)n1)c1ccccc1 [Example 66],3.11^[b]
23,Cn1nncc1C(=NOCc1cccc(NC(=O)C2CC2)n1)c1ccccc1 [Example 67],2.55^[b]
24,Cn1nncc1C(=NOCc1cccc(NC(=O)Cc2ccccc2)n1)c1ccccc1 [Example 68],3.19^[b]
25,CCCCCOC(=O)Nc1cccc(CON=C(c2ccccc2)c2cnnn2C)n1 [Example 69],2.46^[b]
26,Cn1nncc1C(=NOCc1nccc(N)n1)c1ccccc1 [Example 70],0.96^[b]
27,CCCCCC(=O)Nc1ccnc(CON=C(c2ccccc2)c2cnnn2C)n1 [Example 71],3.23^[b]

row,Structure (SMILES),log p
1,CCCCS(=O)(=O)Nc1cccc(CON=C(c2ccccc2)c2ncnn2C)n1 [Example 72],4.21^[b]
2,CCCCS(=O)(=O)N(c1cccc(CON=C(c2ccccc2)c2ncnn2C)n1)S(=O)(=O)CCCC [Example 73],2.73^[b]
3,CCCCS(=O)(=O)Nc1cccc(CON=C(c2ccc(C)cc2)c2ncnn2C)n1 [Example 74],3.04^[b]
4,CCCCS(=O)(=O)Nc1cccc(CON=C(c2cccc(C)c2)c2ncnn2C)n1 [Example 75],3.04^[b]
5,CCCCS(=O)(=O)Nc1cccc(CON=C(c2ccccc2)c2cnnn2C)n1 [Example 76],2.86^[b]
6,Cn1nncc1C(=NOCc1nccc(NC(=O)C(C)(C)C)n1)c1ccccc1 [Example 77],2.77^[b]
7,CCCCS(=O)(=O)N(c1cccc(CON=C(c2ccc(C)cc2)c2ncnn2C)n1)S(=O)(=O)CCCC [Example 78],4.51^[b]
8,CCCCS(=O)(=O)N(c1cccc(CON=C(c2cccc(C)c2)c2ncnn2C)n1)S(=O)(=O)CCCC [Example 79],4.49^[b]
9,CCCCS(=O)(=O)N(c1cccc(CON=C(c2ccccc2)c2cnnn2C)n1)S(=O)(=O)CCCC [Example 80],4.26^[b]
10,Cn1nncc1C(=NOCc1nccc(NC(=O)Cc2ccccc2)n1)c1ccccc1 [Example 81],2.84^[b]
11,CC(C)CC(=O)Nc1ccnc(CON=C(c2ccccc2)c2cnnn2C)n1 [Example 82],2.77^[b]
12,Cn1nncc1C(=NOCc1csc(NC(=O)C(C)(C)C)n1)c1ccccc1 [Example 83],3.06^[b]
13,CCCCCOC(=O)Nc1nc(CON=C(c2ccccc2)c2cnnn2C)cs1 [Example 84],3.76^[b]
14,CCCCCC(=O)Nc1nc(CON=C(c2ccccc2)c2cnnn2C)cs1 [Example 85],3.44^[b]
15,CC(C)CC(=O)Nc1nc(CON=C(c2ccccc2)c2cnnn2C)cs1 [Example 86],3^[b]
16,CCCCCOC(=O)Nc1ccnc(CON=C(c2ccccc2)c2cnnn2C)n1 [Example 87],3.55^[b]
17,CCCCCCOC(=O)Nc1cccc(CON=C(c2ccccc2)c2ncnn2C)n1 [Example 88],4.36^[b]
18,CCCOC(=O)Nc1cccc(CON=C(c2ccccc2)c2ncnn2C)n1 [Example 89],3.15^[b]
19,Cn1cncc1C(=NOCc1cccc(N2C(=O)c3ccccc3C2=O)n1)c1ccccc1 [Example 90],1.81^[b]
20,CCCCOC(=O)Nc1cccc(CON=C(c2ccccc2)c2ncnn2C)n1 [Example 91],3.53^[b]
21,Cn1ncnc1C(=NOCc1cccc(NC(=O)OCCCCCl)n1)c1ccccc1 [Example 92],3.39^[b]
22,CCOC(=O)Nc1cccc(CON=C(c2ccccc2)c2ncnn2C)n1 [Example 93],2.71^[b]
23,C#CCCOC(=O)Nc1cccc(CON=C(c2ccccc2)c2ncnn2C)n1 [Example 94],2.82^[b]
24,Cn1cncc1C(=NOCc1nccc(N)n1)c1ccccc1 [Example 95],0.01^[b]
25,CC(C)CC(=O)Nc1nc(CON=C(c2ccccc2)c2ncnn2C)cs1 [Example 96],2.88^[b]

# Same assay, conditions: reversed phase HPLC column, pH 2.7
row,Structure (SMILES),chromatographic logP
1,"Cn1ncnc1C(=NOCc1cccc(N2C(=O)c3ccccc3C2=O)n1)c1ccccc1 [Example 13, 2-{6-[({[(1-methyl-1H-1,2,4-triazol-5-yl)(phenyl)methylene]amino}oxy)methyl]pyridin-2-yl}-1H-isoindole-1,3(2H)-dione]",2.76
2,"CCCCCC(=O)Nc1cccc(CON=C(c2ccccc2)c2ncnn2C)n1 [Example 28, N-{6-[({[(1-methyl-1H-1,2,4-triazol-5-yl)(phenyl)methylene]amino}oxy)methyl]pyridin-2-yl}hexanamide]",3.39
